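All cell lines were grown in 96-well plates and treated with compound for 48 hours. GI50: concentration for 50% inhibition of growth. At the TGI there is no net growth.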
Test system: KM12 colon
Assay: growth of human tumour cells (NCI), 48 h

Which results are given for `Cc1sc2nc(NCCc3c[nH]c4ccc(Cl)cc34)[nH]c(=O)c2c1C`?
GI50: 2.17 µM; TGI: 5.54 µM

Test system: SF-268 CNS
Assay: growth of human tumour cells (NCI), 48 h

How did the GI50 turn out when `Fc1ccc(Nc2cc(-n3nnc4ccccc43)nc3ccccc23)cc1` was run?
Its GI50 is greater than 40.1 µM.

And the TGI?
The TGI was greater than 66.3 µM.

With `CC(C)CC1[C@@H](OCc2ccccc2)COS(=O)N1Cc1ccccc1` (stereo partly drawn) as the compound, how does the TGI read?
Its TGI is greater than 100 µM.

`Nc1nc(Br)nc2c1ncn2C1CC(O)C(CO)O1` (stereo not drawn) was tested. Which GI50 did it give?
The GI50 was 99.8 µM.

What about the TGI of the same compound?
The TGI was greater than 100 µM.

`Cc1sc2nc(NCCc3c[nH]c4ccc(Cl)cc34)[nH]c(=O)c2c1C` was tested. Which GI50 did it give?
Its GI50 is 2.28 µM.

What about the TGI of the same compound?
The TGI was 8.13 µM.

Test system: A498 renal
Assay: growth of human tumour cells (NCI), 48 h

With `Fc1ccc(Nc2cc(-n3nnc4ccccc43)nc3ccccc23)cc1` as the compound, how does the GI50 read?
The GI50 was 56.4 µM.

And the TGI?
Its TGI is greater than 100 µM.

Which GI50 does the source give for `Nc1nc(Br)nc2c1ncn2C1CC(O)C(CO)O1` (stereo not drawn) here?
The GI50 was 21 µM.

And the TGI?
Its TGI is 99.4 µM.

Which results are given for `Cc1sc2nc(NCCc3c[nH]c4ccc(Cl)cc34)[nH]c(=O)c2c1C`?
GI50: 1.8 µM; TGI: 4.15 µM

Test system: UACC-62 melanoma
Assay: growth of human tumour cells (NCI), 48 h

What does the source list for `Fc1ccc(Nc2cc(-n3nnc4ccccc43)nc3ccccc23)cc1`?
GI50: 36.4 µM; TGI: > 69.2 µM

For `CC(C)CC1[C@@H](OCc2ccccc2)COS(=O)N1Cc1ccccc1` (stereo partly drawn), which TGI is on record?
The TGI was greater than 100 µM.

Which results are given for `Nc1nc(Br)nc2c1ncn2C1CC(O)C(CO)O1` (stereo not drawn)?
GI50: 2.4 µM; TGI: > 100 µM

For `Cc1sc2nc(NCCc3c[nH]c4ccc(Cl)cc34)[nH]c(=O)c2c1C`, which GI50 is on record?
The GI50 was 2.96 µM.

And the TGI?
The TGI was 12.7 µM.

Test system: OVCAR-4 ovarian
Assay: growth of human tumour cells (NCI), 48 h

Which results are given for `Fc1ccc(Nc2cc(-n3nnc4ccccc43)nc3ccccc23)cc1`?
GI50: 22.4 µM; TGI: > 80.4 µM

`CC(C)CC1[C@@H](OCc2ccccc2)COS(=O)N1Cc1ccccc1` (stereo partly drawn) was tested. Which TGI did it give?
Its TGI is greater than 100 µM.

For `Nc1nc(Br)nc2c1ncn2C1CC(O)C(CO)O1` (stereo not drawn), which GI50 is on record?
Its GI50 is greater than 100 µM.

What about the TGI of the same compound?
Its TGI is greater than 100 µM.

How did the GI50 turn out when `Cc1sc2nc(NCCc3c[nH]c4ccc(Cl)cc34)[nH]c(=O)c2c1C` was run?
The GI50 was 3.27 µM.

And the TGI?
The TGI was 13.4 µM.

Test system: HCT-116 colon
Assay: growth of human tumour cells (NCI), 48 h

With `Fc1ccc(Nc2cc(-n3nnc4ccccc43)nc3ccccc23)cc1` as the compound, how does the GI50 read?
The GI50 was 36.4 µM.

What about the TGI of the same compound?
Its TGI is greater than 100 µM.

Which TGI does the source give for `CC(C)CC1[C@@H](OCc2ccccc2)COS(=O)N1Cc1ccccc1` (stereo partly drawn) here?
Its TGI is greater than 100 µM.

For `Nc1nc(Br)nc2c1ncn2C1CC(O)C(CO)O1` (stereo not drawn), which GI50 is on record?
Its GI50 is 2.76 µM.

What about the TGI of the same compound?
The TGI was greater than 100 µM.

`Cc1sc2nc(NCCc3c[nH]c4ccc(Cl)cc34)[nH]c(=O)c2c1C` was tested. Which GI50 did it give?
The GI50 was 1.84 µM.

And the TGI?
Its TGI is 7.07 µM.

Test system: ACHN renal
Assay: growth of human tumour cells (NCI), 48 h

How did the GI50 turn out when `Fc1ccc(Nc2cc(-n3nnc4ccccc43)nc3ccccc23)cc1` was run?
The GI50 was greater than 62.6 µM.

What about the TGI of the same compound?
The TGI was greater than 100 µM.

How did the TGI turn out when `CC(C)CC1[C@@H](OCc2ccccc2)COS(=O)N1Cc1ccccc1` (stereo partly drawn) was run?
The TGI was 96.2 µM.

`Nc1nc(Br)nc2c1ncn2C1CC(O)C(CO)O1` (stereo not drawn) was tested. Which GI50 did it give?
Its GI50 is 3.7 µM.

And the TGI?
The TGI was greater than 100 µM.

Which GI50 does the source give for `Cc1sc2nc(NCCc3c[nH]c4ccc(Cl)cc34)[nH]c(=O)c2c1C` here?
Its GI50 is 1.93 µM.

What about the TGI of the same compound?
Its TGI is 4.47 µM.

Test system: IGROV1 ovarian
Assay: growth of human tumour cells (NCI), 48 h

Which results are given for `Fc1ccc(Nc2cc(-n3nnc4ccccc43)nc3ccccc23)cc1`?
GI50: 63.9 µM; TGI: > 100 µM

Which TGI does the source give for `CC(C)CC1[C@@H](OCc2ccccc2)COS(=O)N1Cc1ccccc1` (stereo partly drawn) here?
The TGI was greater than 100 µM.

With `Nc1nc(Br)nc2c1ncn2C1CC(O)C(CO)O1` (stereo not drawn) as the compound, how does the TGI read?
The TGI was greater than 69.4 µM.

Which GI50 does the source give for `Cc1sc2nc(NCCc3c[nH]c4ccc(Cl)cc34)[nH]c(=O)c2c1C` here?
Its GI50 is 3.12 µM.

And the TGI?
The TGI was 13.1 µM.

Test system: SF-295 CNS
Assay: growth of human tumour cells (NCI), 48 h

Which results are given for `Fc1ccc(Nc2cc(-n3nnc4ccccc43)nc3ccccc23)cc1`?
GI50: 13.4 µM; TGI: 41.5 µM

Which TGI does the source give for `CC(C)CC1[C@@H](OCc2ccccc2)COS(=O)N1Cc1ccccc1` (stereo partly drawn) here?
The TGI was greater than 100 µM.

With `Nc1nc(Br)nc2c1ncn2C1CC(O)C(CO)O1` (stereo not drawn) as the compound, how does the GI50 read?
The GI50 was 18.4 µM.

What about the TGI of the same compound?
Its TGI is greater than 76.4 µM.

For `Cc1sc2nc(NCCc3c[nH]c4ccc(Cl)cc34)[nH]c(=O)c2c1C`, which GI50 is on record?
The GI50 was 3.53 µM.

What about the TGI of the same compound?
Its TGI is 13.4 µM.

Test system: RXF 393 renal
Assay: growth of human tumour cells (NCI), 48 h

With `Fc1ccc(Nc2cc(-n3nnc4ccccc43)nc3ccccc23)cc1` as the compound, how does the GI50 read?
Its GI50 is 0.781 µM.

What about the TGI of the same compound?
Its TGI is 27.6 µM.

For `Nc1nc(Br)nc2c1ncn2C1CC(O)C(CO)O1` (stereo not drawn), which GI50 is on record?
Its GI50 is 32.8 µM.

What about the TGI of the same compound?
The TGI was greater than 100 µM.

With `Cc1sc2nc(NCCc3c[nH]c4ccc(Cl)cc34)[nH]c(=O)c2c1C` as the compound, how does the GI50 read?
Its GI50 is 1.79 µM.

What about the TGI of the same compound?
Its TGI is 3.41 µM.

Test system: MDA-N
Assay: growth of human tumour cells (NCI), 48 h

`CC(C)CC1[C@@H](OCc2ccccc2)COS(=O)N1Cc1ccccc1` (stereo partly drawn) was tested. Which TGI did it give?
Its TGI is greater than 100 µM.

Test system: SR leukemia
Assay: growth of human tumour cells (NCI), 48 h

What does the source list for `Fc1ccc(Nc2cc(-n3nnc4ccccc43)nc3ccccc23)cc1`?
GI50: > 100 µM; TGI: > 100 µM

With `CC(C)CC1[C@@H](OCc2ccccc2)COS(=O)N1Cc1ccccc1` (stereo partly drawn) as the compound, how does the TGI read?
Its TGI is 73.1 µM.

How did the GI50 turn out when `Nc1nc(Br)nc2c1ncn2C1CC(O)C(CO)O1` (stereo not drawn) was run?
The GI50 was 3.13 µM.

And the TGI?
The TGI was greater than 22.4 µM.

Which GI50 does the source give for `Cc1sc2nc(NCCc3c[nH]c4ccc(Cl)cc34)[nH]c(=O)c2c1C` here?
Its GI50 is 1.81 µM.

And the TGI?
Its TGI is 8.52 µM.

Test system: SK-MEL-5 melanoma
Assay: growth of human tumour cells (NCI), 48 h

Which GI50 does the source give for `Fc1ccc(Nc2cc(-n3nnc4ccccc43)nc3ccccc23)cc1` here?
Its GI50 is 32.2 µM.

What about the TGI of the same compound?
Its TGI is greater than 100 µM.

How did the TGI turn out when `CC(C)CC1[C@@H](OCc2ccccc2)COS(=O)N1Cc1ccccc1` (stereo partly drawn) was run?
Its TGI is greater than 100 µM.

With `Nc1nc(Br)nc2c1ncn2C1CC(O)C(CO)O1` (stereo not drawn) as the compound, how does the GI50 read?
The GI50 was 29.3 µM.

And the TGI?
Its TGI is greater than 100 µM.

What does the source list for `Cc1sc2nc(NCCc3c[nH]c4ccc(Cl)cc34)[nH]c(=O)c2c1C`?
GI50: 1.98 µM; TGI: 3.88 µM

Test system: MOLT-4 leukemia
Assay: growth of human tumour cells (NCI), 48 h

Which results are given for `Fc1ccc(Nc2cc(-n3nnc4ccccc43)nc3ccccc23)cc1`?
GI50: > 100 µM; TGI: > 100 µM

`CC(C)CC1[C@@H](OCc2ccccc2)COS(=O)N1Cc1ccccc1` (stereo partly drawn) was tested. Which TGI did it give?
The TGI was greater than 100 µM.

With `Nc1nc(Br)nc2c1ncn2C1CC(O)C(CO)O1` (stereo not drawn) as the compound, how does the GI50 read?
Its GI50 is 0.408 µM.

What about the TGI of the same compound?
The TGI was greater than 100 µM.

What does the source list for `Cc1sc2nc(NCCc3c[nH]c4ccc(Cl)cc34)[nH]c(=O)c2c1C`?
GI50: 2.22 µM; TGI: 7.27 µM

Test system: PC-3 prostate
Assay: growth of human tumour cells (NCI), 48 h

`Fc1ccc(Nc2cc(-n3nnc4ccccc43)nc3ccccc23)cc1` was tested. Which GI50 did it give?
The GI50 was 20.3 µM.

What about the TGI of the same compound?
Its TGI is greater than 100 µM.

`CC(C)CC1[C@@H](OCc2ccccc2)COS(=O)N1Cc1ccccc1` (stereo partly drawn) was tested. Which TGI did it give?
The TGI was greater than 100 µM.

What does the source list for `Nc1nc(Br)nc2c1ncn2C1CC(O)C(CO)O1` (stereo not drawn)?
GI50: > 20.1 µM; TGI: > 100 µM

What does the source list for `Cc1sc2nc(NCCc3c[nH]c4ccc(Cl)cc34)[nH]c(=O)c2c1C`?
GI50: 2.05 µM; TGI: 8.91 µM

Test system: OVCAR-5 ovarian
Assay: growth of human tumour cells (NCI), 48 h

`Fc1ccc(Nc2cc(-n3nnc4ccccc43)nc3ccccc23)cc1` was tested. Which GI50 did it give?
The GI50 was greater than 100 µM.

What about the TGI of the same compound?
The TGI was greater than 100 µM.

For `CC(C)CC1[C@@H](OCc2ccccc2)COS(=O)N1Cc1ccccc1` (stereo partly drawn), which TGI is on record?
Its TGI is greater than 100 µM.

How did the GI50 turn out when `Nc1nc(Br)nc2c1ncn2C1CC(O)C(CO)O1` (stereo not drawn) was run?
Its GI50 is 90.8 µM.

What about the TGI of the same compound?
The TGI was greater than 100 µM.

For `Cc1sc2nc(NCCc3c[nH]c4ccc(Cl)cc34)[nH]c(=O)c2c1C`, which GI50 is on record?
The GI50 was 2.97 µM.

What about the TGI of the same compound?
The TGI was 11.7 µM.

Source: PubChem BioAssay (NCI)
